This passage reports viscosity and mass density results from the NIST ThermoML archive (doi:10.1021/je8003707).

The conditions of the series: 101 kPa, Liquid; for viscosity: Capillary tube (Ostwald / Ubbelohde) method; for mass density: Pycnometric method.

Numbers after ± are expanded uncertainties.

Consider `C1CCCCC1` [cyclohexane], for which the viscosity runs as follows: (288.15 K) 1.077 ± 0.011 mPa·s; (293.15 K) 0.984 ± 0.01 mPa·s; (298.15 K) 0.903 ± 0.01 mPa·s; (303.15 K) 0.83 ± 0.009 mPa·s; (308.15 K) 0.764 ± 0.009 mPa·s. The mass density was found to be 783.3 ± 0.3 kg/m3 (288.15 K); 778.6 ± 0.3 kg/m3 (293.15 K); 773.9 ± 0.3 kg/m3 (298.15 K); 769.2 ± 0.3 kg/m3 (303.15 K); 764.5 ± 0.4 kg/m3 (308.15 K).
As to `CCCCCCC` [heptane], the viscosity turned out to be 0.441 ± 0.007 mPa·s (288.15 K); 0.417 ± 0.007 mPa·s (293.15 K); 0.396 ± 0.007 mPa·s (298.15 K); 0.375 ± 0.007 mPa·s (303.15 K); 0.356 ± 0.007 mPa·s (308.15 K). Moreover, the mass density is 688.1 ± 0.3 kg/m3 (288.15 K); 683.8 ± 0.3 kg/m3 (293.15 K); 679.7 ± 0.3 kg/m3 (298.15 K); 675.4 ± 0.3 kg/m3 (303.15 K); 671.1 ± 0.3 kg/m3 (308.15 K).

By viscosity is commonly meant the resistance of a fluid to flow. As a reminder, the mass density is mass per unit of volume.
